The values that follow come from BindingDB's records for doi:10.1016/S0960-894X(00)80678-2 (1993).

Each structure is given as a SMILES string. pKi: −log10 of the molar value. Non-standard residues stand in square brackets, D forms with d. Residues, ends and D or L forms follow the SMILES beside them. *: point of attachment. 1Nal = N[C@@H](Cc1cccc2ccccc12)C(=O)O; Boc = CC(C)(C)OC(=O)*

Experiment [1] has as its target Gastrin/cholecystokinin type B receptor (Cavia porcellus). Put plainly: Tested for the inhibition of [3H]pCCK-8 binding to Cholecystokinin type B receptor in guinea pig brain.
Experiment [2] has the same target. The experiment is described as above. This is another data set of the same source.

As for `CCCC[C@@H](NC(=O)CC(=O)N[C@@H](Cc1c[nH]c2ccccc12)C(=O)N(C)[C@@H](CCCC)C(=O)N[C@@H](CC(=O)O)C(=O)N[C@@H](Cc1ccccc1)C(N)=O)NC(=O)[C@H](Cc1ccc(CS(=O)(=O)O)cc1)NC(=O)OC(C)(C)C` [Boc-Phe(CH2-SO3Na)-gNle-mCIy-Trp-(N-Me)Nle-Asp-Phe-NH2], the pKi in experiment [1] is 9.34.

Turning to `CC(C)(C)OC(=O)N[C@@H](Cc1c[nH]c2ccccc12)C(=O)N[C@@H](Cc1ccccc1)C(=O)N[C@@H](CC(=O)O)C(=O)N[C@@H](Cc1cccc2ccccc12)C(N)=O` [Boc-Trp-Phe-Asp-1Nal-NH2] (Boc-WFD[1Nal]-NH2), in experiment [1], the pKi is 7.15.

As for `CCCC[C@@H](NC(=O)CC(=O)N[C@@H](Cc1c[nH]c2ccccc12)C(=O)N(C)[C@@H](CCCC)C(=O)N[C@@H](CC(=O)O)C(=O)N[C@@H](Cc1ccccc1)C(N)=O)NC(=O)[C@H](Cc1ccc(OS(=O)(=O)O)cc1)NC(=O)OC(C)(C)C` [Boc-Tyr(SO3Na)-gNle-mGIy-Trp-(N-Me)Nle-Asp-Phe-NH2], the pKi in experiment [2] was 9.82.
